Values after ≈ are worked out from the molar mass of the structure shown.
How the values were obtained:
[1] = molecular target: T1, N-36/C-34 complex (HIV-1 gp41 core) (Human immunodeficiency virus type 1 group M subtype B, UniProt P04578); experiment: biochemical; format: binding; conditions: for IC50 ± SD NC-1 binding: N-36 2 μM preincubated with compound, then C-34 2 μM; for Inhibitory activity on complex formation by N-36 and C-34 (in words): no concentration stated
T1 construct: Peptides derived from the NHR and CHR regions of gp41, designated N- and C-peptides; made in house; host or cells: chemical synthesis (solid-phase FMOC)
Experimental: For detection of peptide complexes, a direct and a sandwich ELISA were used. In the direct ELISA, the N- and C-peptides were mixed at equimolar concentration in PBS and diluted in coating buffer. Then, the peptide complexes were directly coated onto the wells of microplate. In the sandwich ELISA, the plate was coated with IgG (10 μg/ml) purified from rabbit antisera directed against N36(L6)C34, followed by the addition of the peptide complexes formed by mixing N- and C-peptides in PBS in equimolar concentrations. To screen for antiviral agents, compounds were pre-incubated with N-peptides at 37° C. for 30 minutes before mixing with the C-peptides. The binding of the peptide complexes to the antibodies was then detected as described above.
The percentage of inhibition by the compounds of the binding of NC-1 to the peptide complexes was calculated as described in Jiang, S., K. Lin, and A. R. Neurath, 1991, “Enhancement of human immunodeficiency virus type-1 (HIV-1) infection by antisera to peptides from the envelope glycoproteins gp120/gp41”, J. Exp. Med., 174, 1557-1563.
A sandwich ELISA was established to screen for compounds that interfere with the formation of the N-36/C-34 complex. N-36 (2 μM) was preincubated with compounds at graded concentrations at 37° C. for 30 minutes, followed by the addition of C-34 (2 μM). After incubation at 37° C. for 30 minutes, the mixture was added to wells of a 96-well polystyrene plate (Immulon I, Dynatech Laboratories, Inc., Chantilly, Va.) which were precoated with IgG (10 μg/ml) purified from rabbit antisera directed against N36(L6)C34. […] Absorbance at 450 nm (A450) was read using an ELISA reader (Dynatech Laboratories, Inc., Chantilly, Va.). The percentage of inhibition by the compounds of the binding of NC-1 to the peptide complexes was calculated as described in Jiang S., K. Lin, and A. R. Neurath, 1991, “Enhancement of human immunodeficiency virus type-1 (HIV-1) infection by antisera to peptides from the envelope glycoproteins gp120/gp41”, J. Exp. Med., 174, 1557-1563. The concentration for 50% inhibition (IC50) was calculated using a computer program, designated Calcusyn (Chou, T.-C., 1991, “The median-effect principle and the combination index for quantitation of synergism and antagonism. In Synergism and Antagonism in Chemotherapy”, T.-C. Chou and D. C. Rideout, editors, Academic Press, San Diego, 61-102).

[2] = tested on: H9/HIV-1IIIB cells and MT-2 cells; experiment: cells; format: cell-based; conditions: for IC50 ± SD Cell fusion: 37° C., 2 hours; for Inhibitory activity on HIV-1-mediated cell fusion (in words): no concentration stated
Experimental: A dye transfer assay was used for detection of HIV-1-mediated cell fusion as described in Jiang et al., Nature, 365, 113 (1993). H9/HIV-1IIIB cells were labeled with a fluorescent reagent, 2′,7′-bis-(2-carboxyethyl)-5-and-6-carboxyfluorescein acetoxyethyl ester (BCECF-AM), (Molecular Probes, Inc., Eugene, Oreg.) and incubated with MT-2 cells (ratio=1:10) in a 96-well plate at 37° C. for 2 hours in the presence or absence of peptides or compounds tested. The fused and unfused BCECF-labeled HIV-1 infected cells were counted under an inverted fluorescence microscope (Zeiss, Germany) with an eyepiece micrometer discs. The percentage of inhibition of cell fusion was calculated as described in Jiang et al., 1993, Nature, 365, 113.
A dye transfer assay was used for detection of HIV-1 mediated cell fusion as described in Jiang, S., K. Lin, N. Strick, and A. R. Neurath, 1993, Inhibition of HIV-1 infection by a fusion domain binding peptide from HIV-1 envelope glycoprotein gp41, Biochem. Biophys. Res. Commun., 195, 533-538.
H9/HIV-1IIIB cells were labeled with a fluorescent reagent, 2′,7′-bis-(2-carboxyethyl)-5-and-6-carboxyfluorescein acetoxyethyl ester (BCECF-AM) (Molecular Probes, Inc., Eugene, Oreg.) and then incubated with MT-2 cells (ratio=1:10) in 96-well plates at 37° C. for 2 hours in the presence or absence of the compounds tested. The fused and unfused BCECF-labeled HIV-1 infected cells were counted under an inverted fluorescence microscope (Zeiss, Germany) with an eyepiece micrometer disc. The percentage of inhibition of cell fusion and the IC50 values were calculated as described in Jiang et al., (1993), Biochem. Biophys. Res. Commun., 195, 533-538.

[3] = tested on: MT-2 cells; experiment: In vitro cytotoxicity, XTT; format: cell-based
Experimental: The in vitro cytotoxicity for MT-2 cells of the compounds was determined in 96-well plates using the XTT dye to measure cell viability in the absence of virus. Ten μl of 5% TRITON X-100 were added to the wells corresponding to positive controls (“P”) and 10 μl medium was added to wells corresponding to negative controls (“N”). The percent cytotoxicity was calculated using the following formula: % cytotoxicity=[(E−N)/(P−N)]×100%, wherein “E” represents experimental data in the presence of compounds. The concentration corresponding to 50% cytotoxicity (CC50) for MT-2 cells was calculated using the Calcusyn computer program. The selectivity index (S.I.=CC50/IC50) for each compound was calculated.

[4] = tested on: HIV-1IIIB; experiment: HIV-1-mediated cytopathic effect (CPE), XTT; format: cell-based; conditions: for Selective Index (S.I.) = CC50/IC50 for CPE / IC50 ± SD CPE: MT-2 cells; for IC50 ± SD CPE: sixth day post infection
Experimental: The inhibitory activity of the compounds was determined by a calorimetric method based on protection of cells against HIV-1-mediated CPE, as described in Jiang et al., (1991), J. Exp. Med., 174, 1557-1563. 1×10^4 MT-2 cells in 96-well plates were infected with diluted HIV-1IIIB in 200 μl RPMI 1640 medium containing 10% FBS in the presence of compounds at graded concentrations. After 1 hour, 24 hours and 4 days, half of the culture media were changed. On the sixth day post infection, an indicator, XTT tetrazolium dye (1 mg/ml; 50 μl/well; PolySciences, Inc., Warrington, Pa.), was added to the cells. After 4 hours, the soluble intracellular formazan was determined calorimetrically at 450 nm. The percent of inhibition of CPE and the IC50 values were calculated as described above.

[5] = molecular target: T2, preformed N36/C34 complex (Human immunodeficiency virus type 1 group M subtype B, UniProt P04578); experiment: Control ELISA: NC-1 binding to preformed complex in the presence of compound; parameters: species or system HIV-1; conditions: different concentrations of compound
T2 construct: Peptides derived from the NHR and CHR regions of gp41, designated N- and C-peptides; made in house; host or cells: chemical synthesis (solid-phase FMOC)
Text: The position might be taken that ADJ-J1, selected by a sandwich ELISA, may not block the complex formation by N- and C-peptides, but instead block NC-1 binding to the complex, either due to its association with MAb NC-1 or with the N36/C34 complex. The first possibility was excluded, since the antibody-coated wells of the plastic plates were extensively washed after addition of the mixture of N36, ADS-J1 and C34 and before. addition of MAb NC-1, excluding the presence of unbound ADS-J1, which could bind to MAb NC-1. To determine whether or not ADS-J1 binds to the surface of the N36/C34 complex and blocks NC-1 binding, a control experiment was conducted in which the complex In was preformed by mixing N36 and C34 at equimolar concentrations and captured to the wells of plastic plates coated with rabbit antibody directed against N36/C34 complex. Then, the binding of MAb NC-1 to the preformed complex in the presence of ADS-J1 at different concentrations was determined.

T1 sequence (P04578 546-581, one chain of several): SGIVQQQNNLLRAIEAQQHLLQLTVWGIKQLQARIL
T2 sequence (P04578 546-581, one chain of several): as above

| Compound | IC50 ± SD NC-1 binding [1] | IC50 ± SD Cell fusion [2] | CC50 ± SD [3] | Selective Index (S.I.) = CC50/IC50 for CPE [4] | IC50 ± SD CPE [4] | Inhibition of NC-1 detectable complex formation by N-36 and C-34 (in words) ([1]; compounds at 10 μg/ml, FIG. 13) | Inhibitory activity on complex formation by N-36 and C-34 (in words) [1] | Inhibitory activity on complex formation by N-36 and C-34 (in words) ([1]; listed as ADJ-1) | Blocking of NC-1 binding to the preformed N36/C34 complex [5] | Inhibition of HIV-1-mediated cell fusion (in words) ([2]; compounds at 10 μg/ml, FIG. 13) | Inhibitory activity on HIV-1-mediated cell fusion (in words) [2] | Inhibitory activity on HIV-1-mediated cell fusion (in words) ([2]; listed as ADJ-1) | Inhibitory activity on HIV-1-mediated CPE (in words) ([4]; no concentration stated) |
| --- | --- | --- | --- | --- | --- | --- | --- | --- | --- | --- | --- | --- | --- |
| Cc1ccc(C(=O)Nc2cccc(C(=O)N/N=C/c3ccc(Br)cc3)c2)cc1 [ADS-J3] | >100 µg/mL | >100 µg/mL | 24.91 ± 2.62 µg/mL (≈ 57.1 µM) | ≦1.00 | >100 µg/mL | – | – | – | – | – | – | – | – |
| 7-[6-phenylamino-4-[4-[(3,5-disulfo-8-hydroxynaphthyl)azo]-2-methoxy-5-methylphenylamino]-1,3,5-triazine-2-yl]-4-hydroxy-3-[(2-methoxy-5-sulfophenyl)azo]-2-naphthalene sulfonic acid [ADS-J1] | 0.73 ± 0.08 µg/mL | 4.95 ± 1.31 µg/mL | 292.16 ± 2.27 µg/mL | 35.24 | 8.29 ± 1.13 µg/mL | completely inhibited | promising inhibitory activity | most potent inhibitory activity | unable to block | completely inhibited | promising inhibitory activity | most potent inhibitory activity | promising inhibitory activity |
| COc1ccc2c(c1)CCC/C2=N\OC(=O)Nc1ccccc1-c1ccccc1 [ADS-J8] | >100 µg/mL | >100 µg/mL | 46.83 ± 4.93 µg/mL (≈ 121 µM) | ≦1.00 | >100 µg/mL | – | – | – | – | – | – | – | – |

— patent publication US6596497B1, “Screening of antiviral compounds targeted to the HIV-1 gp41 core structure” (New York Blood Center, Inc., priority 1999, dated 2003)
